The subject of one data set is MV4:11. In words: Cell proliferation assay. Type of data set: cell-based. The conditions noted are these: GI50,K562/GI50,MV4:11.
Another data set has as its system MV4:11 cancer cells. The note with it: cited from earlier work.
For a further data set, the system named is MV4:11 mouse xenograft. The conditions noted are these: ip (DDO-2093) and po (DDO-2213) dosing; cited from earlier work.
The target of another data set is WDR5 (Homo sapiens, UniProt P61964). Briefly: TR-FRET competition assay against MLL1-derived 10-mer-Thr-FAM peptide probe. The class given is binding.
Data set [1] is described as follows: Clinical observations during mouse PK studies. Type of data set: in vivo. The note with it: CD-1 mice; for tolerability / clinical signs: 3 mg/kg iv and 10 mg/kg po.
Data set [2] can be described thus: In vivo pharmacokinetic studies. The note with it: for clearance / AUC(0-inf) / Vd / bioavailability / Cmax / half-life: male, CD-1, mouse, plasma. Also on record: species or system CD-1 mice.
The nature of data set [3]: Microsomal intrinsic clearance assay. Type of data set: in vitro ADME. The conditions noted are these: rat, pooled liver microsomes. (Microsomes from liver hold many membrane-bound enzymes, among them those of drug oxidation.)
A further data set has as its system K562. In words: Cell proliferation assay. The conditions noted are these: Homo sapiens, K562, 120 h, read-out: Cell Proliferation Assays GI50 (nM) K562. The class given is cell-based.
Another data set is described as follows: Kinetic solubility assay. Type of data set: physicochemical. The conditions noted are these: phosphate-buffered saline, pH 7.4.
The test system of the next data set is mouse models. The note with it: cited from earlier work.

These results are taken from paper PMC10081510 (Journal of medicinal chemistry, 2022).

≈ marks a conversion by molar mass, not a printed value. Entries after “also recorded” stand apart in the source; their conditions may differ.

On to `COc1cc(CN2CCc3c(cc(Cn4cccc4)cc3-c3cn(C)nc3C(F)(F)F)C2=O)cc(OC)c1` [Compound 18, 7-((1H-Pyrrol-1-yl)methyl)-2-(3,5-dimethoxybenzyl)-5-(1-methyl-3-(trifluoromethyl)-1H-pyrazol-4-yl)-3,4-dihydroisoquinolin-1(2H)-one], for which the “Selectivity K562/MV4:11” value in the data set on MV4:11 is recorded as above 2.
In the case of `COc1cc(CN2CCc3c(cc(Cn4ccnc4C(F)F)cc3-c3cn(C)nc3C(F)(F)F)C2=O)cc(OC)c1` [Compound 24, 7-((2-(Difluoromethyl)-1H-imidazol-1-yl)methyl)-2-(3,5-dimethoxybenzyl)-5-(1-methyl-3-(trifluoromethyl)-1H-pyrazol-4-yl)-3,4-dihydroisoquinolin-1(2H)-one], in the data set with MV4:11, the “Selectivity K562/MV4:11” value is above 3.
The same measure, in the same setting: the value for `COc1cc(CN2CCc3c(cc(Cn4cccn4)cc3-c3cn(C)nc3C(F)(F)F)C2=O)cc(OC)c1` [Compound 17, 7-((1H-Pyrazol-1-yl)methyl)-2-(3,5-dimethoxybenzyl)-5-(1-methyl-3-(trifluoromethyl)-1H-pyrazol-4-yl)-3,4-dihydroisoquinolin-1(2H)-one] was above 1.
For `CN1CCN(c2cc(F)c(-c3ccc(NC(=O)N(C)C)cc3)cc2Nc2ncnc(Cl)c2N)CC1` [DDO-2213], the GI50 in the data set with MV4:11 cancer cells was around 10000 nM. The “in vivo tumor growth inhibition” value in the data set with MV4:11 mouse xenograft was “marginal in vivo tumor growth inhibition”.
As to `CCc1nccn1Cc1cc2c(c(-c3cn(C)nc3C(F)(F)F)c1)CCN(Cc1cc(OC)cc(OC)c1)C2=O` [Compound 21, 2-(3,5-Dimethoxybenzyl)-7-((2-ethyl-1H-imidazol-1-yl)methyl)-5-(1-methyl-3-(trifluoromethyl)-1H-pyrazol-4-yl)-3,4-dihydroisoquinolin-1(2H)-one], the inhibitory constant (Ki) on WDR5 turned out to be 0.022 ± 0.001 nM.
For `CCn1cc(-c2cc(Cn3ccnc3C)cc3c2CCN([C@@H](C)c2cc(OC)ccn2)C3=O)c(C(F)(F)F)n1` [Compound 34, (S)-5-(1-Ethyl-3-(trifluoromethyl)-1H-pyrazol-4-yl)-2-(1-(4-methoxypyridin-2-yl)ethyl)-7-((2-methyl-1H-imidazol-1-yl)methyl)-3,4-dihydroisoquinolin-1(2H)-one], the “tolerability / clinical signs” value in data set [1] is “behaved normally during the study and showed no adverse effects”. The clearance in data set [2] (iv, 3 mg/kg) was 118 mL/min/kg.
Take `CCn1cc(-c2cc(Cn3ccnc3)cc3c2CCN([C@@H](C)c2cc(OC)ccn2)C3=O)c(C(F)(F)F)n1` [Compound 38, (S)-7-((1H-Imidazol-1-yl)methyl)-5-(1-ethyl-3-(trifluoromethyl)-1H-pyrazol-4-yl)-2-(1-(4-methoxypyridin-2-yl)ethyl)-3,4-dihydroisoquinolin-1(2H)-one]: in data set [1], the “tolerability / clinical signs” value is “behaved normally during the study and showed no adverse effects”. In data set [3], the half-life at 1 μM stood at 0.367 h and the intrinsic metabolic clearance (microsomal CLint) at 1 μM is 31 µL/min/mg. In [2] (iv, 3 mg/kg), this compound returned an AUC(0-inf) of 707 ng·h/mL, a Vd of 2.3 L/kg and a clearance of 76 mL/min/kg. In data set [2] (oral, 10 mg/kg), the bioavailability was determined as 73%. In data set [2] (po, 10 mg/kg), the AUC(0-inf) came to 1710 ng·h/mL, the maximum concentration (Cmax) came out at 2010 ng/mL and the half-life was 1.2 h. The GI50 in the data set on K562 turned out to be 1900 ± 1800 nM. For the same compound, the “Selectivity K562/MV4:11” value with MV4:11 turned out to be 200. This compound also showed a kinetic solubility at 1 h in the data set “Kinetic solubility assay” of 86 µM (≈ 45.1 µg/mL). The compound also came in with an inhibition constant Ki at WDR5 below 0.02 nM.
With `CCn1cc(-c2cc(Cn3ccnc3)cc3c2CCN([C@H](c2cc(C)ccn2)C2CC2)C3=O)c(C(F)(F)F)n1` [Compound 41, (S)-7-((1H-Imidazol-1-yl)methyl)-2-(cyclopropyl(4-methylpyridin-2-yl)methyl)-5-(1-ethyl-3-(trifluoromethyl)-1H-pyrazol-4-yl)-3,4-dihydroisoquinolin-1(2H)-one], the “tolerability / clinical signs” value in [1] is “behaved normally during the study and showed no adverse effects”. In data set [2] (iv, 3 mg/kg), this compound displayed an AUC(0-inf) of 1950 ng·h/mL, a volume of distribution (Vd) of 1.6 L/kg and a clearance of 26 mL/min/kg. Further, the bioavailability in [2] (oral, 10 mg/kg) amounted to 61%. In data set [2] (po, 10 mg/kg), this compound had an AUC(0-inf) of 3980 ng·h/mL, a Cmax of 2080 ng/mL and a half-life of 1.3 h. Further, in the data set with K562, the GI50 was 3700 ± 3100 nM. The “Selectivity K562/MV4:11” value with MV4:11 was 290. The compound further had a solubility (kinetic) at 1 h in the data set “Kinetic solubility assay” of 60 µM (≈ 32.1 µg/mL). At WDR5, the Ki was below 0.02 nM.
For `CCn1cc(-c2cc(Cn3ccnc3C)cc3c2CCN([C@H](c2cc(OC)ccn2)C2CC2)C3=O)c(C(F)(F)F)n1` [Compound 36, (S)-2-(Cyclopropyl(4-methoxypyridin-2-yl)methyl)-5-(1-ethyl-3-(trifluoromethyl)-1H-pyrazol-4-yl)-7-((2-methyl-1H-imidazol-1-yl)methyl)-3,4-dihydroisoquinolin-1(2H)-one], the “tolerability / clinical signs” value in data set [1] is “behaved normally during the study and showed no adverse effects”. Further, in [2] (iv, 3 mg/kg), the total exposure AUC(0-inf) came out at 1240 ng·h/mL, the distribution volume (Vd) came out at 1.6 L/kg and the clearance is 41 mL/min/kg. Moreover, in [2] (po, 10 mg/kg), the total exposure AUC(0-inf) was 508 ng·h/mL, the Cmax was 652 ng/mL, the bioavailability amounted to 12% and the half-life was 1.4 h. Besides, in the data set on K562, the GI50 was 2600 ± 1500 nM. Besides, the kinetic solubility at 1 h in “Kinetic solubility assay” came to 65 µM (≈ 36.7 µg/mL). This compound registered a Ki at WDR5 below 0.02 nM.
In the case of `COc1cc(CN2CCc3c(cc(Cn4ccnc4C(C)C)cc3-c3cn(C)nc3C(F)(F)F)C2=O)cc(OC)c1` [Compound 22, 2-(3,5-Dimethoxybenzyl)-7-((2-isopropyl-1H-imidazol-1-yl)methyl)-5-(1-methyl-3-(trifluoromethyl)-1H-pyrazol-4-yl)-3,4-dihydroisoquinolin-1(2H)-one], the GI50 in the data set with K562 worked out at 16000 ± 3100 nM.
`COc1cc(CN2CCc3c(cc(Cn4cnnc4)cc3-c3cn(C)nc3C(F)(F)F)C2=O)cc(OC)c1` [Compound 19, 7-((4H-1,2,4-Triazol-4-yl)methyl)-2-(3,5-dimethoxybenzyl)-5-(1-methyl-3-(trifluoromethyl)-1H-pyrazol-4-yl)-3,4-dihydroisoquinolin-1(2H)-one]: in the data set on MV4:11, the “Selectivity K562/MV4:11” value is listed as above 2.
As for `Cc1ncsc1-c1ccc([C@H](C)NC(=O)[C@@H]2C[C@@H](O)CN2C(=O)[C@@H](NC(=O)CNC(=O)c2ccc(F)c(-c3ccc(N4C[C@@H](C)N(C)[C@@H](C)C4)c(NC(=O)c4c[nH]c(=O)cc4C(F)(F)F)c3)c2)C(C)(C)C)cc1` [MS67], the “in vivo tumor growth inhibition” value in the data set with mouse models is “demonstrated in vivo tumor growth inhibition”.
On to `CCn1cc(-c2cc(Cn3ccnc3C)cc3c2CCN([C@H](c2cc(C)ccn2)C2CC2)C3=O)c(C(F)(F)F)n1` [Compound 37, (S)-2-(Cyclopropyl(4-methylpyridin-2-yl)methyl)-5-(1-ethyl-3-(trifluoromethyl)-1H-pyrazol-4-yl)-7-((2-methyl-1H-imidazol-1-yl)methyl)-3,4-dihydroisoquinolin-1(2H)-one], for which the “tolerability / clinical signs” value in data set [1] was “behaved normally during the study and showed no adverse effects”. The clearance in data set [2] (iv, 3 mg/kg) was 25 mL/min/kg.
Regarding `Cc1c(F)c(N)cc(C(=O)Nc2cc(-n3cc(C(=O)NCCCN4CCOCC4)nn3)ccc2N2CCN(C)CC2)c1Cl` [DDO-2093], the GI50 with MV4:11 cancer cells was around 10000 nM. In the data set with MV4:11 mouse xenograft, the “in vivo tumor growth inhibition” value was “marginal in vivo tumor growth inhibition”.
With `COc1cc(CN2CCc3c(cc(Cn4ccn(C)c4=N)cc3-c3ccc(F)cc3C)C2=O)cc(OC)c1` [Compound 1], in [1] (3 mg/kg iv, 3 mg/kg), the acute toxicity signs entry is recorded as “signs of severe acute toxicity; also recorded: lethality”. In addition, in data set [2] (CD-1 mice, 3 mg/kg po), the oral exposure entry is recorded as “below the limit of quantitation”. In data set [2] (iv, 3 mg/kg), this compound came in with a clearance of 78 mL/min/kg.
`CCn1cc(-c2cc(Cn3ccnc3)cc3c2CCN([C@H](c2cc(OC)ccn2)C2CC2)C3=O)c(C(F)(F)F)n1` [Compound 40, (S)-7-((1H-Imidazol-1-yl)methyl)-2-(cyclopropyl(4-methoxypyridin-2-yl)methyl)-5-(1-ethyl-3-(trifluoromethyl)-1H-pyrazol-4-yl)-3,4-dihydroisoquinolin-1(2H)-one]: the “tolerability / clinical signs” value in data set [1] was “behaved normally during the study and showed no adverse effects”.

Usually Ki stands for the dissociation constant of the complex between target and ligand, obtained from inhibition or displacement. Higher therefore signals weaker binding. A word on the clearance: it is the rate of elimination divided by the concentration. The low end stands for a low capacity for elimination, the high end for a high capacity for elimination. One may read the half-life as the time needed for the level to fall by half in the phase considered. A low value points to fast loss. The microsomal CLint is the rate of metabolic loss divided by the concentration. The AUC(0-inf) is the area under the concentration-time curve extrapolated to infinity. A lower AUC(0-inf) goes with less exposure. In general, Vd refers to the apparent volume that relates the amount in the body to the concentration in plasma or blood. Lower therefore signals confinement near the circulation. Usually bioavailability stands for dose-corrected exposure relative to a reference, in per cent. The low end stands for little systemic uptake, the high end for much systemic uptake. By Cmax is commonly meant the peak of the concentration-time curve. The kinetic solubility is solubility judged after dilution from a stock solution rather than from solid.
